Key:
[1] = test system: Human Dermal Lymphatic Endothelial Cells (HDLEC); assay: Vascular (endothelial) permeability test, FITC-dextran passage through lymphatic endothelial monolayer; format: cell-based; details: IL-1β 10 ng/ml 1 h, no extract
Protocol: In box A of FIG. 1 what is shown is the model in which lymphatic or hematic endothelial cells are measured in culture on a semi-permeable membrane, with presence of culture medium above and below said membrane, so as to allow the passage of components present in the medium when the cells are not strictly linked to one another, and FITCH-dextran molecules are inserted in the culture medium above the cells.
Quantification by means of fluorescence of the FITC-dextran complex provides a measure of the permeability of the endothelium. […]
The authors have therefore used a model, shown schematically in FIG. 1, to study the effects of various plant extracts on endothelia of blood or lymphatic vessels. […] The degree of permeability has been determined by way of experiment by measuring the amount of fluorescent probe that crosses the endothelial barrier separating the two compartments representing, respectively, the lumen of the vessel (above the semi-permeable membrane) and the interstice (below the semi-permeable membrane). […]
The samples were assessed in 2-3 concentrations vs. vehicle alone on the cell cultures, untreated and treated with IL1beta (10 ng/ml), to understand if they have any effect in themselves on undamaged cells and if the tested substances are able to reverse the rise in permeability induced by IL1beta. […]

[2] = test system: occludin and ZO-1 in confluent HDLEC and HDBEC cells; assay: Immunofluorescence analysis of tight junction proteins occludin and ZO-1; format: cell-based, human; details: IL-1beta alone 10 ng/ml, 1 hour
Protocol: FIG. 11 reports the data of immunofluorescence analyses of occludin (upper boxes) and of the protein ZO-1 (lower boxes) in confluent HDLEC (A) and HDBEC (B) cells treated with the following stimuli: no stimulus, IL-1beta alone (10 ng/ml, 1 hour), mixture of the invention alone (10 micrograms/ml 18 hours); mixture of the invention (18 hours)+IL-1beta (1 hour). The confocal images were taken with 60× enlargement, the scale bar=10 micrometers.
Occludin and ZO-1 were assessed as markers representative of tight endothelial junctions. The confluent cells express these markers, whereas they are reduced following treatment with IL-1beta.
The proteins of occluding tight junction and zona occludens 1 (ZO-1) expressed on the cell surface were visualised using confocal analysis. The cells were plated 5×10^4 on 1 cm circular glass slides. After 24 hours the cells were washed and treated with the mentioned stimulants. The immunofluorescence analysis was carried out as reported in the materials and methods of Monti et al, Pharmacol Res 2013; 76:171-81.

**Q.** What does the source list for “IL-1β: interleukin beta, inflammatory agent used to raise endothelial permeability”?
**A.** permeability of endothelial cells treated with IL-1β alone (healthy cells = 100%) [1]: approximately 160%; tight junction markers occludin and ZO-1 [2]: reduced

From patent publication US10314877B2, “Method for lymph drainage” (ABOCA S.P.A. SOCIETÀ AGRICOLA, priority 2015, dated 2019)
